#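 Grown in 96-well plates, cells were treated for 48 hours with each compound at five concentrations. Insufficient inhibition: endpoint recorded as highest concentration tested. The concentration for 50% growth inhibition is given as GI50.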 Activity calls are given as the source filed them. Rule as the data show it: active = GI50 up to about 1.1 µM and inactive = higher.
# Key:
# Assay in all cases: DTP human tumour cell line panel, 48 h
# [1] = tested on: PC-3
# [2] = tested on: COLO 205
# [3] = tested on: UACC-257
# [4] = tested on: SW-620
# [5] = tested on: 786-0
# [6] = tested on: NCI-H522
# [7] = tested on: KM12
# [8] = tested on: OVCAR-3
# [9] = tested on: Malme-3M
# [10] = tested on: HCT-15
# [11] = tested on: MDA-MB-231
# [12] = tested on: U-251
# [13] = tested on: MDA-N
# [14] = tested on: HT-29
# [15] = tested on: NCI-H23
# [16] = tested on: Hs-578T
# [17] = tested on: K562
# [18] = tested on: SF-295
# [19] = tested on: SF-268
# [20] = tested on: HOP-92
# [21] = tested on: UACC-62
# [22] = tested on: A498
# [23] = tested on: M14
# [24] = tested on: SNB-19
# [25] = tested on: UO-31
# [26] = tested on: OVCAR-4
# [27] = tested on: CAKI-1
# [28] = tested on: ACHN
# [29] = tested on: TK-10
# [30] = tested on: SK-OV-3
# [31] = tested on: T47D
# [32] = tested on: IGROV-1
# [33] = tested on: MOLT-4
# [34] = tested on: RXF 393
# [35] = tested on: HL-60
# [36] = tested on: SK-MEL-5
# [37] = tested on: A549
# [38] = tested on: CCRF-CEM
# [39] = tested on: DU-145
# [40] = tested on: LOX IMVI
# [41] = tested on: SN12C
# [42] = tested on: OVCAR-5
# [43] = tested on: SK-MEL-2
# [44] = tested on: EKVX
# [45] = tested on: OVCAR-8
# [46] = tested on: SF-539
# [47] = tested on: BT-549
# [48] = tested on: NCI/ADR-RES
# [49] = tested on: RPMI-8226
# [50] = tested on: MDA-MB-435
# [51] = tested on: SK-MEL-28
# [52] = tested on: NCI-H460
# [53] = tested on: HOP-62
# [54] = tested on: SR
# [55] = tested on: MCF7
# [56] = tested on: NCI-H226
# [57] = tested on: SNB-75
# [58] = tested on: HCT-116
compound,measurement,setting,value
COCCOC(=O)c1c(C)[n+]([O-])c2cc(Cl)c(Cl)cc2[n+]1[O-],GI50,[1],21.3 µM (inactive)
same,GI50,[2],12.5 µM (inactive)
same,GI50,[3],20.2 µM (inactive)
same,GI50,[4],20 µM (inactive)
same,GI50,[5],22.6 µM (inactive)
same,GI50,[6],17.1 µM (inactive)
same,GI50,[7],10.8 µM (inactive)
same,GI50,[8],13.4 µM (inactive)
same,GI50,[9],18.5 µM (inactive)
same,GI50,[10],8.71 µM
same,GI50,[11],24.1 µM (inactive)
same,GI50,[12],9.82 µM (inactive)
same,GI50,[13],23.2 µM (inactive)
same,GI50,[14],18.7 µM (inactive)
same,GI50,[15],19.8 µM (inactive)
same,GI50,[16],32.7 µM (inactive)
same,GI50,[17],13.7 µM (inactive)
same,GI50,[18],17.1 µM (inactive)
same,GI50,[19],14.2 µM (inactive)
same,GI50,[20],5.21 µM (inactive)
same,GI50,[21],14.8 µM (inactive)
same,GI50,[22],20.3 µM (inactive)
same,GI50,[23],18.6 µM (inactive)
same,GI50,[24],40.8 µM (inactive)
same,GI50,[25],0.311 µM (active)
same,GI50,[26],14.4 µM (inactive)
same,GI50,[27],19 µM (inactive)
same,GI50,[28],12.7 µM (inactive)
same,GI50,[29],23.2 µM (inactive)
same,GI50,[30],17.9 µM (inactive)
same,GI50,[31],4.68 µM (inactive)
same,GI50,[32],3.85 µM (inactive)
same,GI50,[33],13.1 µM (inactive)
same,GI50,[34],30.4 µM (inactive)
same,GI50,[35],6.41 µM (inactive)
same,GI50,[36],7.6 µM (inactive)
same,GI50,[37],12.7 µM (inactive)
same,GI50,[38],9.29 µM (inactive)
same,GI50,[39],11.5 µM (inactive)
same,GI50,[40],13.5 µM (inactive)
same,GI50,[41],20 µM (inactive)
same,GI50,[42],16.7 µM (inactive)
same,GI50,[43],25.3 µM (inactive)
same,GI50,[44],17.1 µM (inactive)
same,GI50,[45],7.06 µM (inactive)
same,GI50,[46],22.6 µM (inactive)
same,GI50,[47],19.1 µM (inactive)
same,GI50,[48],11 µM (inactive)
same,GI50,[49],4.69 µM (inactive)
same,GI50,[50],17.5 µM (inactive)
same,GI50,[51],28.4 µM (inactive)
same,GI50,[52],7.85 µM (inactive)
same,GI50,[53],11 µM (inactive)
same,GI50,[54],4.76 µM (inactive)
same,GI50,[55],11.1 µM (inactive)
O=C(NCCCCCCNC(=O)c1cc(-c2ccccc2)nc2ccccc12)c1cc(-c2ccccc2)nc2ccccc12,GI50,[1],> 100 µM (inactive)
same,GI50,[2],> 100 µM (inactive)
same,GI50,[3],> 100 µM (inactive)
same,GI50,[4],> 100 µM (inactive)
same,GI50,[5],31.6 µM (inactive)
same,GI50,[6],> 100 µM (inactive)
same,GI50,[8],> 100 µM (inactive)
same,GI50,[9],> 100 µM (inactive)
same,GI50,[10],> 100 µM
same,GI50,[11],> 100 µM (inactive)
same,GI50,[12],88.3 µM (inactive)
same,GI50,[13],> 100 µM (inactive)
same,GI50,[14],> 100 µM (inactive)
same,GI50,[15],> 100 µM (inactive)
same,GI50,[16],40.6 µM (inactive)
same,GI50,[56],> 100 µM (inactive)
same,GI50,[17],> 100 µM (inactive)
same,GI50,[18],84.7 µM (inactive)
same,GI50,[19],> 100 µM (inactive)
same,GI50,[20],> 100 µM (inactive)
same,GI50,[21],> 100 µM (inactive)
same,GI50,[22],> 100 µM (inactive)
same,GI50,[23],> 100 µM (inactive)
same,GI50,[24],> 100 µM (inactive)
same,GI50,[57],33.3 µM (inactive)
same,GI50,[25],> 100 µM (inactive)
same,GI50,[26],> 100 µM (inactive)
same,GI50,[27],> 100 µM (inactive)
same,GI50,[28],> 100 µM (inactive)
same,GI50,[29],> 100 µM (inactive)
same,GI50,[30],> 100 µM (inactive)
same,GI50,[31],> 100 µM (inactive)
same,GI50,[32],34.8 µM (inactive)
same,GI50,[33],> 100 µM (inactive)
same,GI50,[34],> 100 µM (inactive)
same,GI50,[35],> 100 µM (inactive)
same,GI50,[36],> 100 µM (inactive)
same,GI50,[37],> 100 µM (inactive)
same,GI50,[38],> 100 µM (inactive)
same,GI50,[39],> 100 µM (inactive)
same,GI50,[40],> 100 µM (inactive)
same,GI50,[41],> 100 µM (inactive)
same,GI50,[42],> 100 µM (inactive)
same,GI50,[44],> 100 µM (inactive)
same,GI50,[45],> 100 µM (inactive)
same,GI50,[46],> 100 µM (inactive)
same,GI50,[47],> 100 µM (inactive)
same,GI50,[48],> 100 µM (inactive)
same,GI50,[49],> 100 µM (inactive)
same,GI50,[50],> 100 µM (inactive)
same,GI50,[51],> 100 µM (inactive)
same,GI50,[52],> 100 µM (inactive)
same,GI50,[53],54.3 µM (inactive)
same,GI50,[54],> 100 µM (inactive)
same,GI50,[58],> 100 µM (inactive)
same,GI50,[55],> 100 µM (inactive)

# — ChEMBL document CHEMBL1201862, “PubChem BioAssay data set” (2004)
